Four compounds from article PMC8819633 (Journal of medicinal chemistry, 2021) can be followed below.

Where only a bound is given, the exact number is not on record here.

One data set concerns T-AKT and P-AKT (S473). The data set is described as follows: Western blot of AKT degradation in PC3 cells. Type of data set: cell-based, human. As to conditions: for T-AKT and P-AKT degradation (western blot): PC3 cells, 1 μM, 24 h. (In western blotting, separated proteins are transferred to a membrane and probed.)
Data set [1] deals with total AKT (T-AKT) and phosphorylated AKT (P-AKT (S473)). The data set is described as follows: Western blot of AKT degradation in BT474 cells. Particulars: for time course of T-AKT and P-AKT degradation: indicated times; for T-AKT and P-AKT protein degradation (western blot): 24 h, 1, 5 and 10 μM (12-13: 1, 3 and 10 μM); for hook effect in AKT degradation: higher concentrations (up to 10 μM); for extent of T-AKT degradation in concentration-response: indicated concentrations; for hook effect in concentration-response: concentrations up to 10 μM. The data set is classed as cell-based, human.

Data set [2] has as its system P-PRAS40 (T246) and P-S6 (S240/244). The data set is described as follows: Western blot of downstream signaling inhibition in BT474 cells. The data set is classed as cell-based, human. As to conditions: for kinetics of downstream signaling inhibition: 1 μM, vs GDC-0068; for inhibition of downstream signaling, P-PRAS40 and P-S6: 24 h, compared with GDC-0068 (1 μM).
For data set [3], the system named is MDA-MB-468 cells. The data set is described as follows: Cell proliferation assay. Type of data set: cell-based, human. As to conditions: 5 days.
Data set [4] is classed as in vivo. Particulars: mice, single IP injection, 50 mg/kg.
For data set [5] the following is noted: 50 mg/kg; for time of Cmax: male Swiss albino mice, single IP injection.
Data set [6] concerns MDA-MB-468 cells. The data set is described as follows: Apoptosis assay. Type of data set: cell-based, human. As to conditions: MDA-MB-468 cells (Figure S5).
The subject of a further data set is PC3 cells. As to the kind of experiment: Cell proliferation assay. Type of data set: cell-based, human. As to conditions: 5 days.
The next data set has as its system T-AKT and P-AKT. As to the kind of experiment: Competition. The data set is classed as cell-based, human. Particulars: BT474, then degrader 22 h; for effect of GDC-0068 pretreatment on degrader-induced AKT degradation: 2 h pretreatment with GDC-0068 (1 μM); for effect of MG132 pretreatment on degrader-induced AKT degradation: 2 h pretreatment with MG132 (10 μM); for effect of MLN4924 pretreatment on degrader-induced AKT degradation: 2 h pretreatment with MLN4924 (1 μM).

For data set [7], the system named is P-PRAS40 (T246) and P-S6 (S240/244). The data set is described as follows: Western blot of downstream signaling inhibition in PC3 cells. Type of data set: cell-based, human. Particulars: 1 μM, 24 h, vs GSK690693.

Regarding `Cc1ncsc1-c1ccc([C@H](C)NC(=O)[C@@H]2C[C@@H](O)CN2C(=O)[C@@H](NC(=O)CCCCCCCCCCC(=O)NCCNC[C@@H](C(=O)N2CCN(c3ncnc4c3[C@H](C)C[C@H]4O)CC2)c2ccc(Cl)cc2)C(C)(C)C)cc1` [Compound 13, N^1-(2-(((S)-2-(4-Chlorophenyl)-3-(4-((5R,7R)-7-hydroxy-5-methyl-6,7-dihydro-5H-cyclopenta[d]pyrimidin-4-yl)piperazin-1-yl)-3-oxopropyl)amino)ethyl)-N^12-((S)-1-((2S,4R)-4-hydroxy-2-(((S)-1-(4-(4-methylthiazol-5-yl)phenyl)ethyl)carbamoyl)pyrrolidin-1-yl)-3,3-dimethyl-1-oxobutan-2-yl)dodecanediamide], the “AKT degradation, concentration-response” value with T-AKT and P-AKT (S473) was “effectively induced AKT degradation in a concentration-dependent manner”. In [1] (1 μM), the “duration of T-AKT and P-AKT degradation” value is on record as “at least 24 h”; the “time course of T-AKT and P-AKT degradation” value was “Obvious degradation occurred at 4 h, and near-complete degradation was achieved at 8 h”. Moreover, in [1], the “T-AKT and P-AKT protein degradation (western blot)” value is “remarkable effects on degrading T-AKT and P-AKT”; the “hook effect in concentration-response” value is recorded as “No ″hook effect″ was observed”. In addition, in [1] (24 h), the “hook effect in AKT degradation” value is “less ″hook effect″ than 12” and the “extent of T-AKT degradation in concentration-response” value is listed as “near-complete depletion of T-AKT at 1 μM”. Further, in [2], the “kinetics of downstream signaling inhibition” value is “not as rapid as that induced by GDC-0068”; the “inhibition of downstream signaling, P-PRAS40 and P-S6” value was “more profound inhibition of P-PRAS40 and P-S6 than 11”. Further, in the data set with MDA-MB-468 cells [3], the growth inhibition entry is “comparable potencies to GDC-0068 and INY-03–041”. In addition, the tolerability result in [4] is reported as “well tolerated”. Moreover, the “time of Cmax” value in data set [5] is 2 h. For the same compound, the “plasma concentrations over 8 h” value in data set [5] (mouse, in vivo, ip) is “above 3 μM”. In addition, in the data set with MDA-MB-468 cells [6], the apoptosis induced was not above 3%. For the same compound, in the data set with PC3 cells, the growth inhibition result was “comparable potencies to GDC-0068 and INY-03–041”. Besides, in the data set with T-AKT and P-AKT, the “effect of GDC-0068 pretreatment on degrader-induced AKT degradation” value is reported as “blocked the AKT degradation induced by 13”; the “effect of MG132 pretreatment on degrader-induced AKT degradation” value is “completely prevented 13-mediated degradation of T-AKT and P-AKT and inhibition of P-PRAS40”; the “effect of MLN4924 pretreatment on degrader-induced AKT degradation” value was “completely prevented 13-mediated degradation of T-AKT and P-AKT and inhibition of P-PRAS40”.

Take `C[C@@H]1C[C@@H](O)c2ncnc(N3CCN(C(=O)[C@H](CNCCC(=O)NCCCCCCCCNc4cccc5c4C(=O)N(C4CCC(=O)NC4=O)C5=O)c4ccc(Cl)cc4)CC3)c21` (stereo partly shown) [Compound 25]: in the data set with T-AKT and P-AKT (S473), the “AKT degradation, concentration-response” value was “effectively induced AKT degradation in a concentration-dependent manner”. For the same compound, in [1] (1 μM), the “duration of T-AKT and P-AKT degradation” value was “at least 24 h”; the “time course of T-AKT and P-AKT degradation” value is “Significant P-AKT and T-AKT degradation occurred as early as 4 and 8 h, respectively”. Besides, the “T-AKT and P-AKT degradation” value in data set [1] (1 μM, 24 h) is given as more than 95%. Besides, in data set [1], the “T-AKT and P-AKT protein degradation (western blot)” value is “highly effective in reducing T-AKT and P-AKT protein levels”; the “hook effect in concentration-response” value is “No ″hook effect″ was observed”. Further, in data set [1] (24 h), the “hook effect in AKT degradation” value was “without a ″hook effect″” and the “extent of T-AKT degradation in concentration-response” value is recorded as “complete degradation of T-AKT at 300 nM”. For the same compound, in [2], the “kinetics of downstream signaling inhibition” value was “not as rapid as that induced by GDC-0068”; the “inhibition of downstream signaling, P-PRAS40 and P-S6” value is reported as “most effective in inhibiting the downstream signaling”. Besides, in the data set with MDA-MB-468 cells [3], the growth inhibition result is “comparable potencies to GDC-0068 and INY-03–041”. In addition, the tolerability result in data set [4] is “well tolerated”. For the same compound, the “time of Cmax” value in data set [5] came to 2 h. Moreover, the apoptosis induced with MDA-MB-468 cells [6] is reported as not above 3%. Moreover, the growth inhibition result in the data set on PC3 cells is “comparable potencies to GDC-0068 and INY-03–041”. For the same compound, in the data set on T-AKT and P-AKT, the “effect of GDC-0068 pretreatment on degrader-induced AKT degradation” value was “rescued 25-induced AKT degradation”, the “effect of MG132 pretreatment on degrader-induced AKT degradation” value was “rescued 25-induced AKT degradation” and the “effect of MLN4924 pretreatment on degrader-induced AKT degradation” value is “rescued 25-induced AKT degradation”.

For `CCn1c(-c2nonc2N)nc2c(C#CC(C)(C)O)ncc(OCCCNCCCC(=O)NCCCCCCCCCCC(=O)N[C@H](C(=O)N3C[C@H](O)C[C@H]3C(=O)NCc3ccc(-c4scnc4C)cc3)C(C)(C)C)c21` [Compound 48, (2S,4R)-1-((S)-2-(11-(4-((3-((2-(4-Amino-1,2,5-oxadiazol-3-yl)-1-ethyl-4-(3-hydroxy-3-methylbut-1-yn-1-yl)-1H-imidazo[4,5-c]-pyridin-7-yl)oxy)propyl)amino)butanamido)undecanamido)-3,3-dimethylbutanoyl)-4-hydroxy-N-(4-(4-methylthiazol-5-yl)benzyl)-pyrrolidine-2-carboxamide], the “T-AKT and P-AKT degradation (western blot)” value in the data set with T-AKT and P-AKT (S473) was “the most effective in degrading T-AKT and P-AKT”. Moreover, the “inhibition of P-PRAS40” value in data set [7] is “less effective than GSK690693 in inhibiting P-PRAS40”.

With `CCn1c(-c2nonc2N)nc2c(C#CC(C)(C)O)ncc(OCCCNCCCC(=O)NCCCCCCCCNc3cccc4c3C(=O)N(C3CCC(=O)NC3=O)C4=O)c21` (stereo not shown) [Compound 60, 4-((3-((2-(4-Amino-1,2,5-oxadiazol-3-yl)-1-ethyl-4-(3-hydroxy-3-methylbut-1-yn-1-yl)-1H-imidazo[4,5-c]pyridin-7-yl)oxy)propyl)-amino)-N-(8-((2-(2,6-dioxopiperidin-3-yl)-1,3-dioxoisoindolin-4-yl)-amino)octyl)butanamide], in the data set on T-AKT and P-AKT (S473), the “T-AKT and P-AKT degradation (western blot)” value was “the most effective in degrading T-AKT and P-AKT”. Also, the “inhibition of P-PRAS40” value in data set [7] is listed as “less effective than GSK690693 in inhibiting P-PRAS40”.
